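Grown in 96-well plates, cells were treated for 48 hours with each compound at five concentrations. Insufficient inhibition: endpoint recorded as highest concentration tested. GI50 = concentration required for 50% inhibition of growth.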 Activity calls are given as the source filed them. No stated cut-off is given here; in the data, active = GI50 up to about 1.1 µM and inactive = higher.
Experiments:
Assay in all cases: DTP human tumour cell line panel, 48 h
OVCAR-8 = test system: OVCAR-8
RPMI-8226 = test system: RPMI-8226
A549 = test system: A549
CAKI-1 = test system: CAKI-1
SK-OV-3 = test system: SK-OV-3
M19-MEL = test system: M19-MEL
NCI-H23 = test system: NCI-H23
IGROV-1 = test system: IGROV-1
HOP-92 = test system: HOP-92
ACHN = test system: ACHN
UO-31 = test system: UO-31
OVCAR-4 = test system: OVCAR-4
M14 = test system: M14
UACC-62 = test system: UACC-62
SNB-75 = test system: SNB-75
MOLT-4 = test system: MOLT-4
HL-60 = test system: HL-60
MDA-MB-435 = test system: MDA-MB-435
BT-549 = test system: BT-549
PC-3 = test system: PC-3

Measured: GI50

O=C1Nc2ccc([N+](=O)[O-])cc2/C1=N/Nc1ccc([N+](=O)[O-])cc1
inactive: OVCAR-8 13.8 µM | RPMI-8226 5.09 µM | A549 14.4 µM | CAKI-1 20.5 µM | SK-OV-3 22.2 µM | M19-MEL 16.1 µM | NCI-H23 20.3 µM | IGROV-1 48.2 µM | HOP-92 9.08 µM | ACHN 22.3 µM | UO-31 26.5 µM | OVCAR-4 19.5 µM | M14 15.8 µM | UACC-62 14.6 µM | SNB-75 40.9 µM | MOLT-4 41.6 µM

CC(=O)Nc1ccc(/C=N\N2C(=O)c3ccccc3C2=O)cc1
inactive: OVCAR-8 > 100 µM | RPMI-8226 > 100 µM | A549 > 100 µM | CAKI-1 > 100 µM | M19-MEL > 100 µM | NCI-H23 > 100 µM | IGROV-1 > 100 µM | HOP-92 > 100 µM | ACHN > 100 µM | UO-31 > 100 µM | OVCAR-4 > 100 µM | M14 > 100 µM | UACC-62 > 100 µM | SNB-75 > 100 µM | HL-60 > 100 µM | MOLT-4 > 100 µM

CC(C)CNc1nc(N)nc(O)c1NC=O
inactive: OVCAR-8 > 100 µM | RPMI-8226 > 100 µM | A549 > 100 µM | CAKI-1 > 100 µM | SK-OV-3 > 100 µM | MDA-MB-435 > 100 µM | NCI-H23 > 100 µM | IGROV-1 > 100 µM | HOP-92 > 100 µM | ACHN > 100 µM | UO-31 > 100 µM | BT-549 > 100 µM | OVCAR-4 > 100 µM | M14 > 100 µM | UACC-62 > 100 µM | SNB-75 > 100 µM | PC-3 > 100 µM | HL-60 > 100 µM | MOLT-4 > 100 µM

C[C@]12CCC(=O)C=C1CC[C@@H]1C2CC[C@]2(C)c3nn(-c4ccccc4)nc3CC12 (stereo not given in full)
inactive: OVCAR-8 > 100 µM | RPMI-8226 > 100 µM | A549 > 100 µM | SK-OV-3 > 100 µM | M19-MEL > 100 µM | NCI-H23 > 100 µM | IGROV-1 > 100 µM | HOP-92 > 100 µM | ACHN > 100 µM | UO-31 > 100 µM | OVCAR-4 > 100 µM | M14 > 100 µM | UACC-62 > 100 µM | SNB-75 > 100 µM | HL-60 > 100 µM | MOLT-4 > 100 µM

N#C/C=C1\C=CC(O)C(O)C1OC1OC(CO)C(O)C(O)C1O (stereo not given)
inactive: OVCAR-8 > 100 µM | RPMI-8226 > 100 µM | A549 > 100 µM | CAKI-1 > 100 µM | SK-OV-3 > 100 µM | MDA-MB-435 > 100 µM | NCI-H23 > 100 µM | IGROV-1 > 100 µM | HOP-92 > 100 µM | ACHN > 100 µM | UO-31 > 100 µM | BT-549 > 100 µM | OVCAR-4 > 100 µM | M14 > 100 µM | UACC-62 > 100 µM | SNB-75 > 100 µM | PC-3 > 100 µM | HL-60 > 100 µM | MOLT-4 > 100 µM

O=C1C(/C=N/CCc2c[nH]c3ccccc23)C(C(F)(F)F)=NN1c1nc2ccccc2s1 (stereo not given)
inactive: OVCAR-8 29.7 µM | RPMI-8226 22.2 µM | A549 18.3 µM | CAKI-1 37.2 µM | SK-OV-3 25.3 µM | MDA-MB-435 25.4 µM | NCI-H23 30.8 µM | IGROV-1 24.4 µM | HOP-92 16.4 µM | ACHN 27.4 µM | UO-31 31.3 µM | BT-549 25.3 µM | OVCAR-4 26.7 µM | M14 30.7 µM | UACC-62 19.5 µM | SNB-75 24.8 µM | PC-3 31 µM | HL-60 19.8 µM | MOLT-4 21.1 µM

Cc1cc(/N=C/c2ccc(N(C)C)cc2)n(-c2ccccc2)n1
inactive: OVCAR-8 78 µM | RPMI-8226 91.8 µM | A549 42.4 µM | CAKI-1 62.7 µM | SK-OV-3 20.2 µM | MDA-MB-435 4.4 µM | NCI-H23 51.2 µM | IGROV-1 50.6 µM | HOP-92 > 100 µM | ACHN > 100 µM | UO-31 > 100 µM | BT-549 51.3 µM | OVCAR-4 > 100 µM | M14 49.2 µM | UACC-62 86.7 µM | SNB-75 40.6 µM | PC-3 48.4 µM | HL-60 17.9 µM | MOLT-4 42.6 µM

O=C1c2ccccc2C(=O)N1CCN(CCN1C(=O)c2ccccc2C1=O)Cc1ccccc1
inactive: OVCAR-8 > 100 µM | RPMI-8226 > 100 µM | A549 > 100 µM | CAKI-1 > 100 µM | SK-OV-3 > 100 µM | M19-MEL > 100 µM | NCI-H23 > 100 µM | HOP-92 68.2 µM | ACHN > 100 µM | UO-31 > 100 µM | OVCAR-4 > 100 µM | M14 > 100 µM | UACC-62 36.7 µM | SNB-75 > 10 µM | HL-60 > 100 µM | MOLT-4 > 100 µM

Source: ChEMBL document CHEMBL1201862, “PubChem BioAssay data set” (2004)
